From patent US20230201226A1, “COMBINATION THERAPY FOR REDUCING DRUG-INDUCED NEPHROTOXICITY, DYSLIPIDEMIA AND HYPERGLYCEMIA” (Yissum Research Development Company of the Hebrew …, priority 2020, published 2023)

Assays:
[1] = test system: human proximal tubule cells (hPTCs); settings: 48 hours
[2] = test system: Human primary proximal tubule cells (hPTC); experiment: Phospholipidosis (Red Phospholipidosis reagent) and neutral lipid (Green LipidTox) staining of kidney cells exposed to kidney damaging agents; format: cell-based; settings: 48 hours
Method: Testing the effect of combination therapy on human kidney cells exposed to kidney damaging agents—Human primary proximal tubule cells (hPTC) were seeded at density of 10,000 cells/cm^2 in a black 96-well plate. When the cells reach 80% density, treatments were induced. […] The drugs were induced either alone (controls) or in combination with Empagliflozin (SGLT2i) at 5 μM or Fenofibrate at 20 μM, themselves in combination with Quercetin at 20 μM. All different solutions included 1× Red Phospholipidosis staining reagent as well. hPTC were incubated with the different combinations for 48 hours at 37° C. 5% CO2 […]. After 48 hours, the media were removed and replaced with Green LipidTox stain to stain for neutral lipids in green (diluted at 1:200 in hPTC medium). After 45 minutes of incubation at 37° C., the plate was mounted onto a Zeiss epifluorescent microscope for quantification. Each condition was tested in three biological replicates, and light settings were the same for all the images. Images were analyzed with ImageJ. […]

Compound: OC[C@H]1O[C@@H](c2ccc(Cl)c(Cc3ccc(O[C@H]4CCOC4)cc3)c2)[C@H](O)[C@@H](O)[C@@H]1O [empagliflozin, Empagliflozin]
- survival of human proximal tubule cells (hPTCs) ([1]; co-administration with 1 mM gentamicin, Empagliflozin 5 μM or Fenofibrate 20 μM): dramatically increased the survival
- prevention of Cyclosporine A, Cisplatin and Gentamicin induced lipotoxicity by co-administration ([2]; Cyclosporine A 1 μM, Cisplatin 1 μM or Gentamicin 1 mM, Empagliflozin 5 μM or Fenofibrate 20 μM): prevented

Compound: Gentamicin
- cell death ([1]; hPTC, 1 mM gentamicin by itself): induced massive cell death
- induced lipotoxicity of the kidneys (phospholipids and neutral lipids) ([2]; kidney damaging agent alone: Cyclosporine A 1 μM, Cisplatin 1 μM, Gentamicin 1 mM): induced lipotoxicity
